Laboratory results published in patent US11142543B2 (priority 2016, dated 2021).
Marks after values point to notes of the source that are not given here.

Assays:
ICR mice [1] = experiment: Forced swimming test (FST), Example 38; assay type: in vivo; details: gavage 10 mg/Kg for 6 days, t-test
Source text: Forced swimming test (FST) to investigate the antidepressant activity of some compounds and some natural products of the present invention
(§1) Male ICR mice (body weight, 20±2 g) used in the experiment were purchased from the Experimental Animal Center of Shanghai Institute of Materia Medica, Chinese Academy of Sciences. They were free access to water and kept at room temperature (23 2) ° C. in natural light. All mice were randomly divided into a blank control group and a test group, with 10 mice in each group and 5 mice/cage. The experiment was started after 3 days of adaptation in the breeding environment. The mice were fasted for 12 hours before the experiment but free access to water. The specific administration method was gavage administration, and the administration dose of the administration group was 10 mg/Kg, and the blank control group was given an equal volume of 0.5% CMC-Na.
Specific procedures: The mice were continuously administered for 6 days, and tested 1 hour after the last administration. Firstly, the spontaneous activity of the mice was measured by the open field method, that is, the mice were individually placed in a cylindrical glass jar for 4 minutes, and the number of lifting arms within the last two minutes was recorded. The mice were then individually placed in a cylindrical glass jar (20 cm high and 14 cm in diameter) with a water depth of 10 cm and a water temperature of 23° C. to 25° C. After mice entered into water, a 6-minute timing was conducted, the cumulative immobility time (the criteria for determining immobility: the mice stopped struggling in the water, or floated with only small limb movements to keep the head float on the water) within the last four minutes was recorded. Each group of mice was operated in parallel.
(§2) Experimental data processing: The experimental results were expressed as mean standard error (x SD). Statistical analysis was performed using t-test to determine whether it was significant. […] Then, the t-test was performed on the experimental index of forced swimming to determine whether it had antidepressant effect.

ICR mice [2] = experiment: Tail suspension test (TST), Example 39; assay type: in vivo; details: gavage 10 mg/Kg for 6 days, t-test
Source text: Tail Suspension Test (TST) to Investigate the Antidepressant Activity of Some Compounds and Some Natural Products of the Present Invention
as §1, with “dose” for “dose of the administration group”
Specific procedures: The mice were continuously administered for 6 days, and tested 1 hour after the last administration. Firstly, the spontaneous activity of the mice was measured by the open field method, that is, the mice were individually placed in a cylindrical glass jar for 4 minutes, and the number of lifting arms within the last 2 minutes was recorded. Then the tail of the mice was stick onto the horizontal bar by the tape at 2 cm from the tip of the tail, and the animal eyesight was separated by the surrounding plates. The horizontal bar was about 25 cm from the ground, so that the mouse was about 10 cm from the ground, and the timing was 6 min. The cumulative immobility time within the last 4 minutes was recorded. Each group of mice was operated in parallel.
as §2, with “tail suspension test” for “forced swimming”

[3] = tested on: ICR mice with ethanol-induced memory reproduction disorder
Description: Learning memory is an advanced function of the human and animal brains.
Before the retesting after training, the ethanol solution was administered to the mouse to block the memory reproduction process of the animal, resulting in memory reproduction disorder.
Male ICR mice, 16-18 g, were purchased from Shanghai Sippr-BK laboratory animal Co. Ltd.
40 male mice were randomly divided into 4 groups by Excel, and each group contained 10 animals. The mice in group 1 (blank group) and mice in group 2 (model group) were orally administered (i.g.) with drinking water daily.
After 3 weeks of administration, 1 hour after the last administration, the exercise was performed once in the dark avoidance method. The mice were placed in a dark avoidance box, and placed in the bright room with the back facing the hole. At the same time, the video analysis device was activated, and the animal passed through the hole into the dark room and received an electric shock, and the timing was automatically stopped. The mice were removed and the screen analysis would record the time required for each mouse to experience an electric shock from the bright room to the dark room, which was the latency period. After 24 h, the test was carried out, and 45% ethanol solution (0.1 ml/10 g) was orally administered 30 min before the test. The video analysis system would automatically record all relevant data of the animal. Data were expressed as mean standard deviation (x±s), and data difference statistics were analyzed by one-way variance (ANOVA) or X^2 test. The difference between groups was judged by P<0.05.

in vivo = details: male, SD, rat
Description: The healthy male SD rats (about 270 g) were fasted for 10 h before administration, and were free to drink water. […] The time points of blood collection from the eye socket were 30 min, 1 h, 2 h, 4 h, 6 h, 8 h, 10 h, 24 h, 48 h after the administration (n=5). […] The time points of blood collection from the eye socket were 5 min, 10 min, 30 min, 1 h, 2 h, 4 h, 8 h (n=4). The plasma was placed in a heparin-coated centrifuge tube, centrifuged for 10 min (8000 r), and the supernatant was taken and stored in a −80° C. refrigerator. After acetonitrile precipitation treatment, it was detected by HPLC-QQQ. The pharmacokinetic parameters, PK parameters of each mouse were calculated by a non-compartmental model of WinNonlin (Pharsight 6.2, NC, USA). All parameters were represented with Mean S.D. Bioavailability (F)=(AUCOral/DoseOral)/(AUCtail vein/Dosetail vein)

rats [4] = experiment: Forced swimming test in rat model, compound C-11 versus fluoxetine, Example 41; assay type: in vivo; details: vs vehicle group, FIG. 3
Description: The rats were placed in a cylindrical jar 24 hours before administration to accommodate the underwater environment for 15 min. On the day of the behavioral test, animals were administered twice and administered orally 4 h and 1 h before the behavioral test. The rats were individually placed in a cylindrical glass jar, timed for 6 minutes, and the number of arm lift was recorded within the last 2 minutes. The rats were then placed in a cylindrical glass jar having 30 cm high and 20 cm in diameter. […] Water temperature was 23° C.-25° C.

rats [5] = experiment: Tail suspension test in rat model, compound C-11 versus fluoxetine, Example 41; assay type: in vivo; details: vs vehicle group, FIG. 4
Description: On the day of the behavioral test, animals were dosed twice and administered orally 4 h and 1 h before the behavioral test. During the experiment, the tail of the rat was hung on a tail suspension test stand about 15 cm away from the ground with a tape or a clip at about 1 cm away from the tail end. […] The experimental time for each group was 6 minutes.

[6] = tested on: C57 mice susceptible to social defeat by CD-1 aggressive mice; experiment: Social defeated stress (SDS) model, Example 42; assay type: in vivo; details: C-11 10 mg/kg gavage every day, fluoxetine 10 mg/kg intraperitoneally every day, 3 weeks
Description: Male CD-1 aged 4-6 months mice which had passed childbearing age were raised separately, allowed to eat freely and adapt to the environment for about one week. Male C57 mice (aged 8-20 weeks differently) were used to screen for aggressive CD-1 mice. The mice screened by C57 were placed directly in the cage of CD-1 for 3 minutes, and the latency period for CD-1 to start showing offensive was recorded, and then the mice screened by C57 were moved out. For each CD-1 mouse, the same C57 was used to screen it three times a day, and different C57-selected mice were selected every day for a total of three days of screening. […] After screening for CD-1 aggressive mice for modeling, each C57 test mouse was exposed to different CD-1 aggressive mice for 10 consecutive days, 10 minutes each day. […] After 10 minutes of contact, the test mice were isolated from the invaders. Test mice and aggressive mice were placed in adjacent sections of the same squirrel cage, separated by a porous transparent plastic baffle, allowing test mice to be exposed under a threatening chronic stress stimulation for the next 24 hours. The control mice were placed in cages having the same structure, but the other side of the baffle was placed with other mice of the same line that were replaced daily. After 24 hours after the end of the last day of the experiment, we evaluated CSDS-induced social behavioral changes and selected all susceptible mice based on previous reports. The social interaction ratio (SI ratio) was calculated according to the following formula: SI ratio=time for the mouse in the interaction area when the aggressor exists/time for the mouse in the interaction area when the aggressor is absent. […] All selected test mice and control mice were then housed individually for 3 weeks. […] The mice in the vehicle group were administered by gavage with 0.5% CMC-Na every day. The SI ratio was assessed once a week.
Two-way ANOVA was used to analyze and LSD method was used for the multiple comparisons of calibration results. The data were expressed in Mean sem. […]

ICR mice [7] = experiment: Toxicity observed during antidepressant efficacy screening (FST and TST animal batch); assay type: in vivo; details: same animal batch as efficacy screening, gavage 10 mg/Kg
Source text: as §1
as §1, with “The specific administration method was gavage administration, and the administration dose of the administration group was 10 mg/Kg, and the blank control group was given an equal volume of 0.5% CMC-Na.” left out

[8] = i.g. once a day for three consecutive weeks, donepezil 1.6 mg/kg, C-49 15 mg/kg, n = 10

## C[C@H]1CC[C@@]2(OC1)O[C@H]1C[C@H]3[C@@H]4CC[C@@H]5C[C@H](NC(=O)Nc6ccccc6)CC[C@]5(C)[C@H]4CC[C@]3(C)[C@H]1[C@@H]2C [compound C-13]
ICR mice [1]
  effect on immobility time of mice in forced swimming test compared with the blank group (in words): significantly reduce the immobility time

## C[C@H]1CC[C@@]2(OC1)O[C@H]1C[C@H]3[C@@H]4CC[C@@H]5C[C@H](NC(=O)NN6CCOCC6)CC[C@]5(C)[C@H]4CC[C@]3(C)[C@H]1[C@@H]2C [compound C-7]
ICR mice [2]
  effect on immobility time of mouse in tail suspension test compared with the blank group (in words): certain antidepressant activity

## C[C@H]1CC[C@@]2(OC1)O[C@H]1C[C@H]3[C@@H]4CC[C@@H]5C[C@H](NC(=O)N(CCNC(=O)CN(C)C)C6CCCCC6)CC[C@]5(C)[C@H]4CC[C@]3(C)[C@H]1[C@@H]2C [compound C-49]
ICR mice [1]
  effect on immobility time of mice in forced swimming test compared with the blank group (in words): significantly reduced the time immobility
ICR mice [2]
  effect on immobility time of mouse in tail suspension test compared with the blank group (in words): significantly reduce the immobility time
[3]; 15 mg/kg, three weeks, mice with memory reproduction disorder induced by ethanol
  improvement effect on learning and memory (in words): significant improvement effect
[3]; [8]
  Number of shocked animals: 3*
  Total number of errors (within 5 min): 3**
[3]; i.g. once a day for three consecutive weeks, donepezil 1.6 mg/kg, C-49 15 mg/kg, x ± s, n = 10
  Latency period from an open room to a dark room: 215.8 ± 135.8 s
In vivo
  bioavailability: 11.1%
In vivo; iv, 1 mg/kg
  AUC: 293 ng·h/mL
  Cmax: 285 ng/mL
  Tmax: 0.1 h
In vivo; po, 100 mg/kg
  AUC: 3120 ng·h/mL
  Cmax: 251 ng/mL
  Tmax: 2.8 ± 1.1 h
In vivo; po, 100 mg/kg, MRT
  MRT: 13.6 h
In vivo; po, 100 mg/kg, T1/2
  half-life: 9.7 h

## C[C@H]1CC[C@@]2(OC1)O[C@H]1C[C@H]3[C@@H]4CC[C@@H]5C[C@@H](O)CC[C@]5(C)[C@H]4CC[C@]3(C)[C@H]1[C@@H]2C [sarsasapogenin, reference compound]
ICR mice [1]
  effect on immobility time of mice in forced swimming test compared with the blank group (in words): could not significantly reduce the immobility time
ICR mice [2]
  effect on immobility time of mouse in tail suspension test compared with the blank group (in words): could not significantly reduce the immobility time

## CNCCC(Oc1ccc(C(F)(F)F)cc1)c1ccccc1 (stereo not drawn) [fluoxetine]
Rats [4]; dose 1.73 mg/kg oral
  effect on immobility time of rats in forced swimming test: had no effect
  effect on wall climbing behavior of rats in forced swimming test: had no effect
Rats [4]; dose 3.46 mg/kg oral
  effect on immobility time of rats in forced swimming test: had no effect
  effect on wall climbing behavior / wall climbing time of rats in forced swimming test: had no effect
Rats [4]; dose 6.92 mg/kg oral
  effect on immobility time of rats in forced swimming test: significantly affect
  effect on wall climbing behavior of rats in forced swimming test: significantly affect
Rats [5]; dose 1.73 mg/kg oral
  effect on cumulative immobility time of rats in tail suspension test: had no effect
Rats [5]; dose 3.46 mg/kg oral
  effect on cumulative immobility time of rats in tail suspension test: had no effect
Rats [5]; dose 6.92 mg/kg oral
  effect on cumulative immobility time of rats in tail suspension test: significantly affect the cumulative immobility time
[6]; FIG. 5A
  mouse social time: did not work during the third week of administration
[6]; FIG. 5B
  social proportion of mice (SI ratio): not effective after three weeks of administration

## COC(=O)C1(NC(=O)N[C@@H]2CC[C@@]3(C)[C@H](CC[C@@H]4[C@@H]3CC[C@]3(C)[C@@H]5[C@H](C[C@@H]43)O[C@]3(CC[C@H](C)CO3)[C@H]5C)C2)CCCCC1 [compound C-19]
ICR mice [2]
  effect on immobility time of mouse in tail suspension test compared with the blank group (in words): certain antidepressant activity

## C[C@H]1CC[C@@]2(OC1)O[C@H]1C[C@H]3[C@@H]4CC[C@@H]5C[C@@H](NC(=O)NC6CCCCC6)CC[C@]5(C)[C@H]4CC[C@]3(C)[C@H]1[C@@H]2C [compound C-12]
ICR mice [1]
  effect on immobility time of mice in forced swimming test compared with the blank group (in words): significant antidepressant activity
ICR mice [2]
  effect on immobility time of mouse in tail suspension test compared with the blank group (in words): significant antidepressant activity
ICR mice [7]
  toxicity observed: No significant toxicity was observed

## C[C@H](CO)CC[C@H]1O[C@H]2C[C@H]3[C@@H]4CC[C@@H]5C[C@H](NC(=O)NC6CCCCC6)CC[C@]5(C)[C@H]4CC[C@]3(C)[C@H]2[C@@H]1C [compound C-23]
ICR mice [1]
  effect on immobility time of mice in forced swimming test compared with the blank group (in words): certain antidepressant activity

## C[C@H]1CC[C@@]2(OC1)O[C@H]1C[C@H]3C4CC[C@@H]5C[C@@H](O[C@@H]6OC(CO)[C@H](O)[C@H](O)C6O)CC[C@]5(C)C4CC[C@]3(C)C1[C@@H]2C (stereo partly drawn) [timosaponin A1, reference compound]
ICR mice [1]
  effect on immobility time of mice in forced swimming test compared with the blank group (in words): could not significantly reduce the immobility time
ICR mice [2]
  effect on immobility time of mouse in tail suspension test compared with the blank group (in words): could not significantly reduce the immobility time

## C[C@H]1CC[C@@]2(OC1)O[C@H]1C[C@H]3[C@@H]4CC[C@@H]5C[C@H](NC(=O)NC6CCC(O)CC6)CC[C@]5(C)[C@H]4CC[C@]3(C)[C@H]1[C@@H]2C (stereo partly drawn) [compound C-5]
ICR mice [2]
  effect on immobility time of mouse in tail suspension test compared with the blank group (in words): certain antidepressant activity

## C[C@H]1CC[C@@]2(OC1)O[C@H]1C[C@H]3[C@@H]4CC[C@@H]5C[C@H](NC(=O)N(CCO)C6CCCCC6)CC[C@]5(C)[C@H]4CC[C@]3(C)[C@H]1[C@@H]2C [compound C-35]
ICR mice [2]
  effect on immobility time of mouse in tail suspension test compared with the blank group (in words): significantly reduce the immobility time
